Tested on: primary human hepatocytes
Assay: Metabolic stability in cryopreserved primary human hepatocytes
Assay type: in vitro ADME
Settings: 4 h incubation with human hepatocytes, compound concentration 5 μg/mL, 37° C., LC/MS
Description: The metabolic stability for compounds of the present invention was determined by using cryopreserved primary human hepatocytes. 1×10^6 cells/mL were incubated in the absence and the presence of 5 and 25 μg/mL of the test compounds at 37° C., 5% CO2 for 4 hours. To evaluate the in vitro degradation under assay conditions, a sample of each test compound was incubated also in the absence of hepatocytes. The incubation was stopped by freezing the reaction mixture. After ultrafiltration and washing of the filter with acetonitrile, the sample solution was analyzed for parent compound disappearance or metabolite appearance using LC/MS (ion trap). The metabolic stability value corresponds to the detected parent compound in % after incubation.

## 14-O-{[(1R, 3R)-3-Amino-cyclohexylsulfanyl]-acetyl}-mutilin hydrochloride and the (1S, 3S)diastereomer hydrochloride thereof
  metabolic stability value: detected parent compound in % after incubation: 24%

## C=CC1(C)CC(OC(=O)CSC2CC(N)CCC2O)C2(C)C(C)CCC3(CCC(=O)C32)C(C)C1O.Cl (mixture of isomers) [Example 2, 14-O-{[(1R, 2R, 5S)-5-Amino-2-hydroxy-cyclohexylsulfanyl]-acetyl}-mutilin hydrochloride+(1S, 2S, 5R)diastereomer hydrochloride]
  metabolic stability value: detected parent compound in % after incubation: 66%
